Reference: patent publication US20250295717A1, “RE[…] OF R[…] VIRUS, COMBINATION, AND APPLICATION THEREOF” (NEUREGEN BIOTHERAPEUTICS (SHANGHAI) CO. LTD, priority 2022, published 2025)

Key:
[1] = test system: human glioblastoma U87 ectopic implantation; assay: Human glioblastoma U87 BALB/CA-nu mouse ectopic implantation model, recombinant HSV (Example 8); assay type: in vivo
Protocol: (§1) For the subcutaneous glioma model, human U87 glioma cells were cultured, and during the logarithmic growth phase, they were inoculated into the axillae of nude mice. After two passages, the tumor tissue was collected under sterile conditions, and the tumor mass was cut into uniform small pieces approximately the size of grains of rice, which were then inoculated subcutaneously in the axillae of nude mice using an implantation needle. Once the tumor grew to approximately 100 mm^3, the mice were randomly grouped, and the treatment began. All samples were dissolved in PBS, with an injection volume of 50 μL/tumor. The length and width of the tumor were measured every three days, and the tumor volume was calculated using the formula: […]
In this implementation, type 1 herpes simplex virus (HSV) was used as an oncolytic virus vector, with fragments from human Ascl1 (SEQ ID No. 11) and the coding sequence (CDS) of human Ngn2 (SEQ ID No. 15) inserted to achieve efficient co-expression of Ascl1 and Ngn2. After packaging and purifying the recombinant HSV, tests were conducted using a human glioblastoma U87 BALB/CA-nu mouse ectopic implantation model. […] Tumor volume was measured every three days, and later, the animals were euthanized to weigh the tumors and perform biochemical and molecular analyses. […]

[2] = test system: human glioma tissue PDX; assay: Patient-derived tumor xenograft (PDX) model from human glioma tissue (Example 7); assay type: in vivo, mouse
Protocol: To further validate the combined effect of oncolytic viruses and redifferentiation therapy, this implementation was tested in a patient-derived tumor xenograft (PDX) model constructed from human glioma tissue. PDX tissues were inoculated into the armpits of nude mice for passaging, and when they reached the logarithmic growth phase, they were re-inoculated into the armpits of nude mice. When the tumor grew to approximately 100 mm^3, appropriate tumor-bearing mice were randomly grouped. After grouping, treatment commenced, with the PBS group serving as the control. The Ad5-AN group received a dose of 1×10^9 PFU, while the temozolomide (TMZ) gavage group received 15 mg/kg once daily for five days, followed by two days off. Additionally, there was a combination treatment group of Ad5-AN and temozolomide, with Ad5-AN administered every two days for a total of five doses. Tumor volume was measured every three days, and later, the animals were euthanized to weigh the tumors and perform biochemical and molecular analyses.

[3] = test system: glioma cells (U87-luc) implanted into the brain; assay: Brain orthotopic glioma model U87-luc (Example 6); assay type: in vivo, mouse; conditions: Ad5-AN 1×10^9 PFU every four days, three doses, TMZ 15 mg/kg, PBS group 22.3 days
Protocol: For the orthotopic glioma model, 7-week-old NOD-scid mice were used. Human glioma cells, either induced with […] or not induced, were centrifuged to remove the supernatant, resulting in a cell density of approximately 2.5×10^5 cells/μL. A total of 2 μL (5×10^5 cells) was implanted into the striatum of each mouse. After three weeks, histological analysis or viral injection was performed, followed by immunohistochemical detection.
In this example, glioma cells (U87-luc) were first implanted into the brain (5×10^5 cells). After 7 days of implantation, the mice were grouped for treatment, with the PBS group serving as the control. The Ad5-AN group received a dose of 1×10^9 PFU, while the temozolomide (TMZ) gavage group received 15 mg/kg once daily for five days, followed by two days off. Additionally, there was a combination treatment group of Ad5-AN and temozolomide, with Ad5-AN administered every four days for a total of three doses.

[4] = test system: human glioma U87 cells subcutaneous implantation; assay: Subcutaneous U87 glioma model, combination with temozolomide (Example 5); assay type: in vivo, mouse
Protocol: as §1
In this example, a subcutaneous implantation model using human glioma U87 cells in BALB/c nu/nu mice was adopted. U87 human glioblastoma cells were inoculated into the armpits of the nude mice during the logarithmic growth phase. When the tumor grew to approximately 100 mm^3, appropriate tumor-bearing mice were randomly grouped. After grouping, treatment commenced, with the PBS group serving as the control. The Ad5-AN group received a dose of 1×10^9 PFU, while the temozolomide (TMZ) gavage group received 15 mg/kg once daily for five days, followed by two days off. Additionally, there was a combination treatment group of Ad5-AN and temozolomide (Ad5-AN+TMZ), with Ad5-AN administered every two days for a total of five doses. Tumor volume was measured every three days, and later, the animals were euthanized to weigh the tumors and perform biochemical and molecular analyses.

[5] = U87 subcutaneous, extended experiment

Cn1nnc2c(C(N)=O)ncn2c1=O [temozolomide]
tumor volume decrease ([1]; after 10 days of treatment, HSV 2×10^6 PFU every two days, five doses, TMZ 15 mg/kg): 73.6% | tumor recurrence ([1]; after two months): 6/6 | time at which tumors gradually relapsed post-treatment [2]: around 45 days | time at which tumors reached nearly 2000 mm^3 [2]: around 72 days | tumors relapsed and began to regrow ([2]; around 45 days post-treatment): 6/6 | average survival [3]: 56.8 days | time at which tumor growth approached 2000 mm^3 [4, 5]: around 60 days | time at which tumors gradually relapsed post-treatment [4, 5]: around 35 days | tumor recurrence after 56 days ([4]; mice with recurrence / seven mice, FIG. 5): 7/7
